We go through eight compounds from patent US8048901B2, “1,3-substituted cycloalkyl derivatives having acidic, mostly heterocyclic groups, processes for their preparation and their use as pharmaceuticals” (Aventis Pharma Deutschland GmbH, priority 2003, dated 2011).

The target in this assay is T1, human PPARalpha (Homo sapiens, UniProt Q07869).
T1 construct: human PPARalpha receptor (amino acids S167-Y468); expressed in transfected cells; host or cells: HEK cells (human embryo kidney), stably transfected with a pcDNA3-based plasmid
T1 sequence (Q07869 167-468): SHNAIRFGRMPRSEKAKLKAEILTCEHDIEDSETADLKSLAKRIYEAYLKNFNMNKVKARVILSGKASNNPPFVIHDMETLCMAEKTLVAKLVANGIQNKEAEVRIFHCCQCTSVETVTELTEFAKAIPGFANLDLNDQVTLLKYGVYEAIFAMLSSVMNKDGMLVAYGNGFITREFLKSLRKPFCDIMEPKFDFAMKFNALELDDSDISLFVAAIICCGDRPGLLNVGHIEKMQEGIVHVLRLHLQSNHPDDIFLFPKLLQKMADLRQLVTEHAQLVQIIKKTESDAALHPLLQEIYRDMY
The assay is described as follows: Cellular PPARalpha assay (stably transfected HEK PPARalpha reporter cell line, luciferase). The class given is cell-based. The settings on record: GR-GAL4-humanPPARalpha-LBD, luciferase readout. Here is the method:
Determination of EC50 Values of PPAR Agonists in the Cellular PPARalpha Assay
The potency of substances which bind to human PPARalpha and activate in an agonistic manner is analyzed using a stably transfected HEK cell line (HEK=human embryo kidney) which is referred to here as PPARalpha reporter cell line. It contains two genetic elements, a luciferase reporter element (pdeltaM-GAL4-Luc-Zeo) and a PPARalpha fusion protein (GR-GAL4-humanPPARalpha-LBD) which mediates expression of the luciferase reporter element depending on a PPARalpha ligand. The stably and constitutively expressed fusion protein GR-GAL4-humanPPARalpha-LBD binds in the cell nucleus of the PPARalpha reporter cell line via the GAL4 protein portion to the GAL4 DNA binding motifs 5′-upstream of the luciferase reporter element which is integrated in the genome of the cell line. There is only little expression of the luciferase reporter gene without addition of a PPARalpha ligand if fatty acid-depleted fetal calf serum (cs-FCS) is used in the assay. PPARalpha ligands bind and activate the PPARalpha fusion protein and thereby bring about expression of the luciferase reporter gene. The luciferase which is formed can be detected by means of chemiluminescence via an appropriate substrate.
The PPARalpha reporter cell line was prepared in 2 stages. Firstly, the luciferase reporter element was constructed and stably transfected into HEK cells. For this purpose, five binding sites of the yeast transcription factor GAL4 (each 5′-CGGAGTACTGTCCTCCGAG-3′) (SEQ ID No. 1) were cloned in 5′-upstream of a 68 bp-long minimal MMTV promoter (Genbank Accession # V01175). The minimal MMTV promoter section contains a CCAAT box and a TATA element in order to enable efficient transcription by RNA polymerase II. The cloning and sequencing of the GAL4-MMTV construct took place in analogy to the description of Sambrook J. et. al. (Molecular cloning, Cold Spring Harbor Laboratory Press, 1989). Then the complete Photinus pyralis gene (Genbank Accession # M15077) was cloned in 3′-downstream of the GAL4-MMTV element. After sequencing, the luceriferase reporter element consisting of five GAL4 binding sites, MMTV promoter and luciferase gene was recloned into a plasmid which confers zeocin resistance in order to obtain the plasmid pdeltaM-GAL4-Luc-Zeo. This vector was transfected into HEK cells in accordance with the statements in Ausubel, F. M. et al. (Current protocols in molecular biology, Vol. 1-3, John Wiley & Sons, Inc., 1995).
In a second step, the PPARalpha fusion protein (GR-GAL4-humanPPARalpha-LBD) was introduced into the stable cell clone described. For this purpose, initially the cDNA coding for the N-terminal 76 amino acids of the glucocorticoid receptor (Genbank Accession # P04150) was linked to the cDNA section coding for amino acids 1-147 of the yeast transcription factor GAL4 (Genbank Accession # P04386). The cDNA of the ligand-binding domain of the human PPARalpha receptor (amino acids S167-Y468; Genbank Accession # S74349) was cloned in at the 3′-end of this GR-GAL4 construct. The fusion construct prepared in this way (GR-GAL4-humanPPARalpha-LBD) was recloned into the plasmid pcDNA3 (from Invitrogen) in order to enable constitutive expression therein by the cytomegalovirus promoter. This plasmid was linearized with a restriction endonuclease and stably transfected into the previously described cell clone containing the luciferase reporter element. The finished PPARalpha reporter cell line which contains a luciferase reporter element and constitutively expresses the PPARalpha fusion protein (GR-GAL4-human PPARalpha-LBD) was isolated by selection with zeocin (0.5 mg/ml) and G418 (0.5 mg/ml).
The activity of PPARalpha agonists is determined in a 3-day assay which is described below: […]

`Cc1cccc(-c2nc(CO[C@H]3CCC[C@@H](OCCOc4cccc(C)c4C(=O)O)C3)c(C)o2)c1` [Example XIV, (1R,3S)-2-Methyl-6-{2-[3-(5-methyl-2-m-tolyloxazol-4-ylmethoxy)cyclohexyloxy]ethoxy}benzoic acid]: the EC50 is 106 nM.

Turning to `Cc1cccc(-c2nc(CO[C@H]3CCC[C@@H](OCCOc4ccccc4C(=O)O)C3)c(C)o2)c1` [Example XV, (1R,3S)-2-{2-[3-(5-Methyl-2-m-tolyloxazol-4-ylmethoxy)cyclohexyloxy]-ethoxy}benzoic acid], a half-maximal effect (EC50) was put at 519 nM. Under `Cc1ccc(-c2nc(CO[C@@H]3CCC[C@H](Cn4c(C(=O)O)cc5ccccc54)C3)c(C)o2)cc1` (racemic) [Example XXVI, 1-[(1S,3R)/(1R,3S)-3-(5-Methyl-2-p-tolyloxazol-4-ylmethoxy)cyclohexylmethyl]-1H-indole-2-carboxylic acid] stands 24 nM; under `COc1ccc2cc(C(=O)O)n(CCO[C@@H]3CCC[C@H](OCc4nc(-c5cccc(C)c5)oc4C)C3)c2c1` [Example XI, (1R,3S)-6-Methoxy-1-{2-[3-(5-methyl-2-m-tolyloxazol-4-ylmethoxy)cyclohexyloxy]ethyl}-1H-indole-2-carboxylic acid], 361 nM. As to `Cc1cccc(-c2nc(CO[C@H]3CCC[C@@H](OCCCNS(=O)(=O)C(F)(F)F)C3)c(C)o2)c1` [Example II, (1R,3S)—C,C,C-Trifluoro-N-{3-[3-(5-methyl-2-m-tolyloxazol-4-ylmethoxy)cyclohexyloxy]propyl}methanesulfonamide], the EC50 turned out to be 331 nM. `CCc1ccc2c(c1)cc(C(=O)O)n2CCO[C@@H]1CCC[C@H](OCc2nc(-c3cccc(C)c3)oc2C)C1` [Example VII, (1R,3S)-5-Ethyl-1-{2-[3-(5-methyl-2-m-tolyloxazol-4-ylmethoxy)cyclohexyloxy]ethyl}-1H-indole-2-carboxylic acid]: the EC50 worked out at 469 nM. Under `Cc1cccc(-c2nc(CO[C@H]3CCC[C@@H](OCCOc4cc(C(F)(F)F)sc4C(=O)O)C3)c(C)o2)c1` [Example XXIII, (1R,3S)-3-{2-[3-(5-Methyl-2-m-tolyloxazol-4-ylmethoxy)cyclohexyloxy]ethoxy}-5-trifluoromethylthiophene-2-carboxylic acid] stands 222 nM; under `Cc1cccc(-c2nc(CO[C@H]3CCC[C@@H](OCCOc4cccc(C)c4[N+](=O)[O-])C3)c(C)o2)c1` [Example XXI, (1S,3R)-5-Methyl-4-{3-[2-(3-methyl-2-nitrophenoxy)ethoxy]cyclohexyloxymethyl}-2-m-tolyloxazole], 530 nM.

The term EC50 denotes the concentration that produces a half-maximal response.
